How the values were obtained:
angiotensin II receptor [1] = settings: cited from earlier work
angiotensin II [2] = assay: anaesthetized, normotensive rats, duration of action against angiotensin II after intraduodenal administration; type: in vivo, rat; settings: for time to maximum angiotensin antagonistic action: after intraduodenal administration, Example 1 at 3 mg/kg
Description: FIG. 5 depicts the effect of known and prior art intraduodenally administered compounds on angiotensin II induced increases of mean arterial blood pressure in anaesthetized, normotensive rats.
FIGS. 6a) and b) depict the effect of known and prior art intraduodenally administered compounds on antiotensin II induced increases in mean arterial blood pressure in normotensive rats.
The duration of action of the substance was determined in anaesthetized, normotensive rats. Angiotensin II (1 μg.kg) was administered intravenously before substance administration and at 15 minute intervals after intraduodenal substance administration.

[3] = biological target: angiotensin II-1 subtype receptor; assay: affinity for angiotensin II-1 subtype receptor on rat adrenal cortex microsomes (3H-DuP 753); type: binding; settings: adrenal cortex microsomes of rats
Description: The affinity of the substances for the angiotensin II-1 subtype receptor was determined on adrenal cortex microsomes of rats (system: ^3 H-DuP 753).

angiotensin II [4] = assay: pithed rats, inhibition of hypertensive action of angiotensin II; type: in vivo, rat
Excerpt: FIGS. 2a), b) and c) depict the effect of the presently claimed and known intravenously administered compounds on angiotensin II induced increases on diastolic blood pressure in pithed rats.
FIGS. 3a), b) and c) depict the effect of known and claimed intraduodenally administered compounds on angiotensin II induced increases of diastolic blood pressure in pithed rats.
FIG. 4 depicts further the effect of known and prior art intraduodenally administered compounds on angiotensin II induced increases of diastolic blood pressure in pithed rats.

angiotensin II receptor [5] = assay: isolated rat aorta, inhibition of maximum contraction due to angiotensin II; type: cell-based; settings: for inhibition at 0.1 µM / inhibition at 0.01 µM / inhibition at 0.001 µM: Rattus norvegicus, angiotensin II 3 × 10^-7 mol/l; for inhibition at 0.1 µM: 10^-7 mol/l compound; for inhibition at 0.01 µM: 10^-8 mol/l compound; for inhibition at 0.001 µM: 10^-9 mol/l compound
Excerpt: FIGS. 1a) and b) depict the action of a compound according to the present invention and a compound of the prior art on the contractile force of an isolated rat aorta.
Isolated rat aorta: % inhibition of the maximum contraction

[6] = anaesthetized normotensive rats, intraduodenal

IC50 [3] [nM] | Compound | conversion on in vivo administration (angiotensin II receptor [1]; in vivo) | time to maximum angiotensin antagonistic action (angiotensin II [2]) [min] | sequence of potency (angiotensin II [2]; [6]) | type of inhibition of the hypertensive action of angiotensin II (angiotensin II [4]) | sequence of potency (angiotensin II [4]; intraduodenal) | inhibition at 0.1 µM (angiotensin II receptor [5]) [%] | inhibition at 0.01 µM (angiotensin II receptor [5]) [%] | inhibition at 0.001 µM (angiotensin II receptor [5]) [%] | type of angiotensin II receptor antagonism (angiotensin II receptor [5]; isolated rat aorta) | reduction of the maximum contraction due to angiotensin II (in words) (angiotensin II receptor [5]; isolated rat aorta, 10^-9 -10^-7 mol/l) | contribution to the duration of action of DuP 753 (angiotensin II receptor [1]; in vivo) | type of antagonism (angiotensin II receptor [1]; metabolite of DuP 753) | effectiveness relative to 10 mg/kg of DuP 753 (angiotensin II [2]; 3 mg/kg of Example 1, intraduodenal, anaesthetized normotensive rats) | onset of action (angiotensin II [2]; intraduodenal, normotensive rats) | potency after intraduodenal administration (angiotensin II [4]; intraduodenal) | potency relative to EXP 3174 (angiotensin II [4]; intravenous, Example 1 0.3-10 mg/kg) | potency relative to DuP 753 (angiotensin II [4]; intravenous, Example 1 0.3-10 mg/kg, DuP 753 1-10 mg/kg)
7.24 | CCCCc1nc(Cl)c(CO)n1Cc1ccc(-c2ccccc2-c2nnn[nH]2)cc1 [DuP 753, 2-n-butyl-4-chloro-5-hydroxymethyl-1-((2'-(1H-tetrazol-5-yl)biphenyl-4-yl)methyl)imidazole] | converted on in vivo administration to a non-competitive metabolite EXP 3174 | 30 to 60 | Example 1>DuP 753 | competitive inhibition, that is to say to a parallel shift to the right of the dose-response curve of angiotensin II without a reduction in the maximum effect | Example 1>DuP 753>EXP 3174 |  |  |  |  |  |  |  |  |  |  |  | 
79.4 | CCCCc1nc(Cl)c(C(=O)OC(C)OC(=O)OCC)n1Cc1ccc(-c2ccccc2-c2nn[nH]n2)cc1 (stereo not drawn) [Example 1] |  | 15 | Example 1>DuP 753 | in a non-competitive manner | Example 1>DuP 753>EXP 3174 | 98 | 72 | 63 | selective, non-competitive angiotensin II receptor antagonists |  |  |  | about twice as effective as 10 mg/kg of DuP 753 | particularly rapid, dose-dependent onset of action | by far the most potent substance | about as potent as EXP 3174 | slightly more potent than DuP 753

Compound | IC50 [3] [nM] | conversion on in vivo administration (angiotensin II receptor [1]; in vivo) | time to maximum angiotensin antagonistic action (angiotensin II [2]) [min] | sequence of potency (angiotensin II [2]; [6]) | type of inhibition of the hypertensive action of angiotensin II (angiotensin II [4]) | sequence of potency (angiotensin II [4]; intraduodenal) | inhibition at 0.1 µM (angiotensin II receptor [5]) [%] | inhibition at 0.01 µM (angiotensin II receptor [5]) [%] | inhibition at 0.001 µM (angiotensin II receptor [5]) [%] | type of angiotensin II receptor antagonism (angiotensin II receptor [5]; isolated rat aorta) | reduction of the maximum contraction due to angiotensin II (in words) (angiotensin II receptor [5]; isolated rat aorta, 10^-9 -10^-7 mol/l) | contribution to the duration of action of DuP 753 (angiotensin II receptor [1]; in vivo) | type of antagonism (angiotensin II receptor [1]; metabolite of DuP 753) | effectiveness relative to 10 mg/kg of DuP 753 (angiotensin II [2]; 3 mg/kg of Example 1, intraduodenal, anaesthetized normotensive rats) | onset of action (angiotensin II [2]; intraduodenal, normotensive rats) | potency after intraduodenal administration (angiotensin II [4]; intraduodenal) | potency relative to EXP 3174 (angiotensin II [4]; intravenous, Example 1 0.3-10 mg/kg) | potency relative to DuP 753 (angiotensin II [4]; intravenous, Example 1 0.3-10 mg/kg, DuP 753 1-10 mg/kg)
CCCCc1nc(Cl)c(C(=O)O)n1Cc1ccc(-c2ccccc2-c2nnn[nH]2)cc1 [EXP 3174, 2-n-butyl-4-chloro-1-((2'-(1H-tetrazol-5-yl)biphenyl-4-yl)methyl)imidazole-5-carboxylic acid] | 7.87 |  |  |  | in a non-competitive manner | Example 1>DuP 753>EXP 3174 | 100 | 95 | 76 | selective, non-competitive angiotensin II receptor antagonists | acting in a comparatively more potent manner | responsible to a large extent for the duration of action of DuP 753 | non-competitive |  |  |  |  | 

From patent US5298519A, “Acylals of imidazole-5-carboxylic acid derivatives, and their use as angiotensin (II) inhibitors” (priority 1991, dated 1994)
